Reference: patent US20230053688A1, “METHODS TO ALTER LATENCY IN EBV+ MALIGNANCIES” (Cornell University, priority 2020, published 2023)
Structures can show the parent of a compound that is named as a salt. Where two headings read alike, the source gives them in different places.

Test system: LMP1 expression in Kem I cells
Experiment: microbe, parasite or virus in culture
Assay type: cell-based, EBV
Settings: for fold induction at 2.5 µM: human gammaherpesvirus 4, 48 h
[1] = Kem I cells, 2.5 uM, 48 hours, average of replicates 1 and 2
[2] = Kem I cells, 2.5 uM, 48 hours, fold change in LMP1 transcript vs vehicle
[3] = read-out: Average LMP1 Fold Increase, Kem I cells, 2.5 uM, 48 hours, average of replicates 1 and 2
[4] = read-out: Replicate 1-LMP1 Fold Increase, Kem I cells, 2.5 uM, 48 hours, fold change in LMP1 transcript vs vehicle
[5] = read-out: Replicate 2-LMP1 Fold Increase, Kem I cells, 2.5 uM, 48 hours, fold change in LMP1 transcript vs vehicle

SMILES	Average LMP1 Fold Increase [1]	Replicate 1-LMP1 Fold Increase [2]	Replicate 2-LMP1 Fold Increase [2]	fold induction at 2.5 µM [3]	fold induction at 2.5 µM [4]	fold induction at 2.5 µM [5]	also measured
COc1ccc2c(c1)c(C1=C(c3c[nH]c4ccccc34)C(=O)NC1=O)cn2CCCN(C)C [Go 6983]	0.34	0.22	0.45	–	–	–	–
CN1C2CCCC1CC(NC(=O)c1nn(C)c3ccccc13)C2 (stereo not shown) [Granisetron HCl]	–	–	–	0.25	0.25	0.24	–
Cl.Cl.O=S(=O)(NCCNC/C=C/c1ccc(Br)cc1)c1cccc2cnccc12 [H 89 2HCl]	0.68	0.54	0.82	–	–	–	–
CC(C)c1ccc(NC(=O)Cn2cnc3c2c(=O)n(C)c(=O)n3C)cc1 [HC-030031]	0.28	0.32	0.24	–	–	–	–
O=C1[C@H](Cc2ccc(O)cc2)N2C(=O)CCN(C(=O)NCc3ccccc3)[C@H]2CN1Cc1cccc2ccccc12 [ICG-001]	1.04	1.17	0.92	–	–	–	–
O=C(c1ccc(Nc2nccc(-c3cc4ccccc4s3)n2)cc1)N1CCC(N2CCCC2)CC1 [IKK-16 (IKK Inhibitor VII)]	0.30	0.26	0.35	–	–	–	–
O=C(Nc1cc(C(F)(F)F)cc(C(F)(F)F)c1)c1cc(Cl)ccc1O [IMD 0354]	–	–	–	0.62	0.74	0.5	–
O=C(O)CNC(=O)c1c(O)c2ccccc2n(Cc2ccccc2)c1=O [IOX2]	0.39	0.40	0.38	–	–	–	–
Oc1ccc2ccccc2c1SSc1c(O)ccc2ccccc12 [IPA-3]	0.27	0.21	0.33	–	–	–	–
C=CC(=O)N1CCC[C@@H](n2nc(-c3ccc(Oc4ccccc4)cc3)c3c(N)ncnc32)C1 [Ibrutinib (PCl-32765)]	–	–	–	–	–	–	Average LMP1 Fold Increase: 0.15; Replicate 1-LMP1 Fold Increase: 0.09; Replicate 2-LMP1 Fold Increase: 0.22
C#Cc1cccc(Nc2ncnc3cc4c(cc23)OCCOCCOCCO4)c1 [Icotinib]	–	–	–	8.04	15.7	0.34	–
CNC(=O)[C@H](Cc1c[nH]c2ccccc12)NC(=O)[C@@H](CC(=O)NO)CC(C)C [Ilomastat (GM6001, Galardin)]	0.08	0.05	0.12	–	–	–	–
Cc1ccc(NC(=O)c2ccc(CN3CCN(C)CC3)cc2)cc1Nc1nccc(-c2cccnc2)n1 [Imatinib (STI571)]	0.42	0.60	0.25	–	–	–	–
CCOC(=O)[C@H](CCc1ccccc1)N[C@@H](C)C(=O)N1C(=O)N(C)C[C@H]1C(=O)O [Imidapril HCl]	–	–	–	0.66	0.88	0.44	–
NC(=O)c1ccc(I)c([N+](=O)[O-])c1 [Iniparib (BSl-201)]	0.63	0.51	0.76	–	–	–	–
CCc1c2c(nc3ccc(OC(=O)N4CCC(N5CCCCC5)CC4)cc13)-c1cc3c(c(=O)n1C2)COC(=O)[C@]3(O)CC [Irinotecan]	0.59	–	–	–	–	–	–
CC1=C(/C=C/C(C)=C/C=C/C(C)=C\C(=O)O)C(C)(C)CCC1 [Isotretinoin]	–	–	–	1.76	1.42	2.1	–
Cc1ccc(C(=O)N(CCCN)[C@@H](c2nc3cc(Cl)ccc3c(=O)n2Cc2ccccc2)C(C)C)cc1 [Ispinesib (SB-715992)]	1.57	2.72	0.43	–	–	–	–
CCn1c(=O)c2c(nc(/C=C/c3ccc(OC)c(OC)c3)n2C)n(CC)c1=O [Istradefylline]	–	–	–	0.7	0.35	1.06	–
CC(C)(C)c1cc(C(C)(C)C)c(NC(=O)c2c[nH]c3ccccc3c2=O)cc1O [Ivacaftor (VX-770)]	1.35	2.22	0.49	–	–	–	–
O=C(Nc1ccccc1)N1CCN(c2nc(-c3ccccc3)ns2)CC1 [JNJ-1661010]	0.51	0.31	0.70	–	–	–	–
Cc1ccc(NCCCc2ccccc2)c(N)c1 [JSH-23]	0.77	0.86	0.69	–	–	–	–
COc1cc(-c2ncn(/C=C\C(=O)OC(C)C)n2)cc(C(F)(F)F)c1 [KPT-185]	0.68	0.56	0.80	–	–	–	–

SMILES	Average LMP1 Fold Increase [1]	Replicate 1-LMP1 Fold Increase [2]	Replicate 2-LMP1 Fold Increase [2]	fold induction at 2.5 µM [3]	fold induction at 2.5 µM [4]	fold induction at 2.5 µM [5]	also measured
O=C(/C=C\n1cnc(-c2cc(C(F)(F)F)cc(C(F)(F)F)c2)n1)N1CC(F)(F)C1 [KPT-276]	1.94	0.97	2.91	–	–	–	–
O=C(/C=C\n1cnc(-c2cc(C(F)(F)F)cc(C(F)(F)F)c2)n1)NNc1cnccn1 [KPT-330]	0.35	0.28	0.42	–	–	–	–
O=c1cc(-c2cccc3c2Sc2ccccc2S3)oc(N2CCOCC2)c1 [KU-55933 (ATM Kinase Inhibitor)]	0.78	0.60	0.95	–	–	–	–
C[C@@H]1CN(CC(=O)Nc2ccc3c(c2)Cc2cccc(-c4cc(=O)cc(N5CCOCC5)o4)c2S3)C[C@H](C)O1 [KU-60019]	–	–	–	0.51	0.49	0.53	–
COC(=O)CCSCc1ccc(-c2onc(C)c2NC(=O)OC(C)c2ccccc2Cl)cc1 (stereo not shown) [Ki16198]	1.33	1.53	1.12	–	–	–	–
Cc1noc(-c2ccc(CSCCC(=O)O)cc2)c1NC(=O)OC(C)c1ccccc1Cl (stereo not shown) [Ki16425]	0.62	0.80	0.45	–	–	–	–
O=C(c1cn(Cc2cncn2Cc2ccc(Br)cc2)cc1-c1cccc2ccccc12)N1CCOCC1 [LB42708]	0.31	0.46	0.16	–	–	–	–
Cc1c(C(=O)Nc2ccc(N3C[C@@H](C)O[C@@H](C)C3)nc2)cccc1-c1ccc(OC(F)(F)F)cc1 [LDE225 (NVP-LDE225, Erismodegib)]	0.39	0.50	0.29	–	–	–	–
Cc1cc(Nc2ncc(Cl)c(Nc3ccccc3S(=O)(=O)C(C)C)n2)c(OC(C)C)cc1C1CCNCC1 [LDK378]	–	–	–	0.67	0.85	0.49	–
c1cc(-c2cnn3cc(-c4ccc(N5CCNCC5)cc4)cnc23)c2cccnc2c1 [LDN-212854]	0.62	0.96	0.27	–	–	–	–
C[C@H](NC(=O)[C@@H](O)c1cc(F)cc(F)c1)C(=O)N[C@@H]1C(=O)N(C)c2ccccc2-c2ccccc21 [LY411575]	0.36	0.41	0.31	–	–	–	–
Cc1cccc(-c2nn3c(c2-c2ccnc4ccc(C(N)=O)cc24)CCC3)n1 [LY2157299]	0.30	0.30	0.30	–	–	–	–
CC(C)(C)Cn1c(N)nc2ccc(-c3[nH]c(C(C)(C)C)nc3-c3ccc(F)cc3)nc21 [LY2228820]	0.60	0.63	0.56	–	–	–	–
Cc1cnc(NC(=O)Nc2cc(Br)c(C)cc2OC[C@@H]2CNCCO2)cn1 [LY2603618]	1.21	0.94	1.47	–	–	–	–
Cc1cc(Nc2cc(CN3CCOCC3)c3nc(C)c(Cc4ccc(Cl)cc4F)n3n2)n[nH]1 [LY2784544]	0.94	1.24	0.65	–	–	–	–
O=C(C[S+]([O-])Cc1ccco1)NC/C=C\COc1cc(CN2CCCCC2)ccn1 (stereo not shown) [Lafutidine]	–	–	–	0.85	0.94	0.76	–
Nc1cccc2c1CN(C1CCC(=O)NC1=O)C2=O (stereo not shown) [Lenalidomide (CC-5013)]	1.74	1.57	1.91	–	–	–	–
N#Cc1ccc(C(c2ccc(C#N)cc2)n2cncn2)cc1 [Letrozole]	–	–	–	1.05	0.66	1.44	–
CCN1CCC[C@H]1CNC(=O)c1cc(S(N)(=O)=O)ccc1OC [Levosulpiride]	–	–	–	0.5	0.7	0.3	–
CC#CCn1c(N2CCC[C@@H](N)C2)nc2c1c(=O)n(Cc1nc(C)c3ccccc3n1)c(=O)n2C [Linagliptin]	–	–	–	0.91	1.01	0.81	–
Nc1nc(OCc2cc(Br)cs2)c2[nH]cnc2n1 [Lomeguatrib]	–	–	–	1.09	0.57	1.61	–
CCOC(=O)N1CCC(=C2c3ccc(Cl)cc3CCc3cccnc32)CC1 [Loratadine]	–	–	–	0.28	0.24	0.32	–
CCCCc1nc(Cl)c(CO)n1Cc1ccc(-c2ccccc2-c2nnn[n-]2)cc1.[K+] [Losartan Potassium (DuP 753)]	0.35	0.21	0.48	–	–	–	–
